Measured values from US20250011363A1, “OPTIMIZED SHORTENED PEPTIDE THAT BINDS TO ACETYLCHOLINE RECEPTOR, AND USE THEREOF” (SKINMED CO., LTD., priority 2021, published 2025).
Read-outs that look alike come from different tables or passages of the source. Residues, ends and D or L forms follow the SMILES beside them. No end group written: not given here. *: point of attachment. Palmitoyl = CCCCCCCCCCCCCCCC(=O)*

Assays:
[1] = system: dermal fibroblast cells isolated from human skin; settings: 100 nM to 100 μM, 24 hours
Method: The optimized shortened peptides according to the present disclosure were assayed for cytotoxicity. In this regard, the cytotoxicity was assessed by the MTT [(3-(4,5-dimethylthiazol-2-yl)-2,5-diphenyltetrazolium bromide] method using dermal fibroblast cells isolated from human skin. The pre-cultured cells were seeded at a concentration of 1×10^5 cells/mL in a 24-well plate and cultured for 18 hours. Subsequently, the medium was removed and the diluted sample was added to the medium free of FBS and incubated for 24 hours, after which the medium was removed and MTT solution was added at a concentration of 1 μg/mL and reacted for 3 hours. Unreacted MTT was removed, and DMSO 100 μL was added to dissolve the formed formazan, and the absorbance at 540 nm was read on an ELISA reader.

[2] = target: T1, Acetylcholine receptor-overexpressing TE671 cells (Homo sapiens, UniProt P02708); experiment: Calcium imaging (Fura-2-AM) of nicotine response, acetylcholine receptor inhibition; format: cell-based; settings: for inhibition at 1 µM: TE-671; for concentration at which acetylcholine receptors were inhibited: TE671 cells, nicotine 400 uM, calcium imaging
T1 construct: endogenous in cells; host or cells: TE671 cells
Method: Acetylcholine receptor-overexpressing TE671 cells were cultured at 37° C. in DMEM medium supplemented with 10% FBS and 1% P/S under 5% CO2. After the TE671 cells were sufficiently grown for 4 days, the cells were detached using trypsin and the cell culture was plated in an amount of 1 ml at a density of 2×10^4 cells/well into 12-well cell culture plate with an 18 mm cover-slip lined therein, and cultured for 4 days.
The cover-slip on which the cells had grown was transferred to a fresh 12-well cell culture plate, and 997 μl of HBSS buffer and 3 μl of Fura-2-AM were added and gently mixed, followed by incubation at 37° C., 5% CO2 for 15 minutes. After incubation, the remaining Fura-2-AM was removed by washing 3-4 times with 1 ml of HBSS buffer, and an additional 1 ml was added. The cover-slip with the grown cells was placed in a chamber, and 500 μl of HBSS buffer was dispensed. The final concentration of nicotine was adjusted to 400 µM to observe the calcium imaging reaction. Then, while keeping the nicotine concentration fixed, the concentration of the sample was adjusted to find the inhibiting concentration.
The inhibitory ability of the Palmitate-6mer-1-43 and Palmitate-5mer-73 peptides on the acetylcholine receptor was examined in the same manner as in Example 6. Additionally, the inhibitory ability (IC50) of the optimized short peptides and the palmitate-modified peptides according to the present disclosure against acetylcholine receptor was compared with Synake and is depicted in FIG. 16.

acetylcholine receptor [3] = target: T2, acetylcholine receptor (Homo sapiens, UniProt P02708); experiment: SPR (Biacore) affinity of shortened Espep2 peptides, Examples 1-2; format: binding; settings: for higher affinity compared to Synake: SPR, FIG. 1
Method: To construct an optimized shortened library from the previous Espep2 peptide, assessment was made of the affinity of peptides having sequences sequentially removed from the N- and C-terminals. Initially, surface plasmon resonance (SPR) experiments were conducted using a biosensor chip (Biacore3000, Biacore AB, Uppsala, Sweden). Selected acetylcholine receptor proteins were immobilized on a CM5 chip (Biacore) using EDC/NHS and observed for association and dissociation for up to 500 seconds. The observation conditions were set forth as follows: running buffer 20 mM Tris (pH 7.4), rate 30 ul/min, concentration 20 μM (peptide), and the results are depicted in FIG. 1.
To identify the crucial sequences in the shortened peptides, alanine scanning was conducted. Wild-type (WT) Espep2-6mer (RKSLLR) and Espep2-5mer (KSLLR) peptides were synthesized with each amino acid sequentially substituted with alanine (Ala, A), and their affinity was measured using the same method as in Example 1. The measurements are depicted in FIG. 2 after normalization to WT.
Moreover, among the six amino acids in the RKSLLR sequence, R residues at the N and C terminals are crucial.

acetylcholine receptor [4] = target: T2, acetylcholine receptor; experiment: as above; format: binding; settings: FIG. 3
acetylcholine receptor [5] = target: T2, acetylcholine receptor; experiment: SPR binding affinity (RU) of optimized 5mer/6mer/7mer peptides, Examples 6-7; settings: for Binding affinity (RU) / Binding affinity: SPR; for Binding affinity (RU): peptides at 10 μM; for Binding affinity: peptides tested at 10 μM
How it was run: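 SPR, peptides at 10 μM; read-out = response units (RU). Sequences drawn from top- or bottom-frequency amino acid combinations, 5mer/6mer-1/6mer-2 libraries.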

T1 sequence (P07510 23-517): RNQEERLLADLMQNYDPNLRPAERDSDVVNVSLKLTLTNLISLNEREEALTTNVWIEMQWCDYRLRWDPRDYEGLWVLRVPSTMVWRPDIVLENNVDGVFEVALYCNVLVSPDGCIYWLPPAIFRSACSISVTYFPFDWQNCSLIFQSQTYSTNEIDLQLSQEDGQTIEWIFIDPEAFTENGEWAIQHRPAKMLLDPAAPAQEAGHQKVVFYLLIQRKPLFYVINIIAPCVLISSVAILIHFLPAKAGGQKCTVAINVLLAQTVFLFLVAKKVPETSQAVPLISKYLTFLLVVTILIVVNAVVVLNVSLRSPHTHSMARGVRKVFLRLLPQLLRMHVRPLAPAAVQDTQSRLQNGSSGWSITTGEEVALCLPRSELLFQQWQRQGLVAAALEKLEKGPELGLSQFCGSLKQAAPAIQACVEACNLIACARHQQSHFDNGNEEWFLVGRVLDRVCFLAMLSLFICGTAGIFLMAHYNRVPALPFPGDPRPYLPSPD
T1 sequence (P11230 24-501, further chain): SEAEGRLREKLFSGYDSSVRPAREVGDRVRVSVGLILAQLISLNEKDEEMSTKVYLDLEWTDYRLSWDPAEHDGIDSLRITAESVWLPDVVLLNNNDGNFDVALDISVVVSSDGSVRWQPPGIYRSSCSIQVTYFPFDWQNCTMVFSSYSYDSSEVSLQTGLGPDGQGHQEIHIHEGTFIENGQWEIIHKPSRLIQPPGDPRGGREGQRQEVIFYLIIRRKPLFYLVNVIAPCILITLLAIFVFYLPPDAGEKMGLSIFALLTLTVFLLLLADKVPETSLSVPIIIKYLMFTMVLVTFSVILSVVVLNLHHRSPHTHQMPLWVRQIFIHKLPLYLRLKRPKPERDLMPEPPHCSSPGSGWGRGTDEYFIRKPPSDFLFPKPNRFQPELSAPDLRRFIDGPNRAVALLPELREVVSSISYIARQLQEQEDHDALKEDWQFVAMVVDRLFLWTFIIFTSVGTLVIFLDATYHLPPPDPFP
T1 sequence (Q07001 22-517, further chain): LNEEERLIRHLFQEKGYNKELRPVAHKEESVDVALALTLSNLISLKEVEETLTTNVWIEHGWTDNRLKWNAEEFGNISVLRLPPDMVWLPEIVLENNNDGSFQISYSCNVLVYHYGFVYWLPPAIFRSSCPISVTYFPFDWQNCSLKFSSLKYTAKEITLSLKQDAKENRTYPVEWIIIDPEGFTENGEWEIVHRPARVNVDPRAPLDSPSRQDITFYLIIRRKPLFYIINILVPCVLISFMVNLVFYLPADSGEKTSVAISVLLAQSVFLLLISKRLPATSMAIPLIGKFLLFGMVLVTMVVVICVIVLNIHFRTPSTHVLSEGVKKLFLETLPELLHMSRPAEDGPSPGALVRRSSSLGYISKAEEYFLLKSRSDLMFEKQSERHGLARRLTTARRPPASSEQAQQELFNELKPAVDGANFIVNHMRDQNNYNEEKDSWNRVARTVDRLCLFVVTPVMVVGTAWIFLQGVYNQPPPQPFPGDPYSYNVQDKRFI
T1 sequence (P02708 21-457): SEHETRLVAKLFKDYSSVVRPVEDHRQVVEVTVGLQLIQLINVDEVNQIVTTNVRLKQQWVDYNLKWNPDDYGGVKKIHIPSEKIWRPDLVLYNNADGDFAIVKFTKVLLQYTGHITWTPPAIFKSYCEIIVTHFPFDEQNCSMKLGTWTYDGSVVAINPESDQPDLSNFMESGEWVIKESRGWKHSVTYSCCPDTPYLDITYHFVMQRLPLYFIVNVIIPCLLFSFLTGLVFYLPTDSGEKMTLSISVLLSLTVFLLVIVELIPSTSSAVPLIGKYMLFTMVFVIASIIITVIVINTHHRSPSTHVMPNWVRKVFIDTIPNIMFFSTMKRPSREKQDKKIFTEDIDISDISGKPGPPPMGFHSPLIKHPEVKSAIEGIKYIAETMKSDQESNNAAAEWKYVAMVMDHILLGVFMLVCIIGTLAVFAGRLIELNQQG
T2 sequence (P02708 21-457): as above

For `CCCCCCCCCCCCCCCC(=O)N[C@@H](CCCNC(=N)N)C(=O)N[C@@H](CCCNC(=N)N)C(=O)N[C@@H](CCC(N)=O)C(=O)N[C@@H](CCCNC(=N)N)C(=O)N[C@@H](CCCNC(=N)N)C(=O)O` [Pal-5mer-73] (Palmitoyl-RRQRR-OH; N-terminus and C-terminus assumed), the “cytotoxicity (MTT)” value [1] was “non-toxic” and the inhibition at 1 µM [2] was 100%.
With `CCCCCCCCCCCCCCCC(=O)N[C@@H](CCCNC(=N)N)C(=O)N[C@@H](CCCCN)C(=O)N[C@@H](CCCNC(=N)N)C(=O)N[C@H](C(=O)N[C@@H](CCCNC(=N)N)C(=O)N[C@@H](CCCNC(=N)N)C(=O)O)[C@@H](C)CC` [Pal-6mer-1-43] (Palmitoyl-RKRIRR-OH; N-terminus and C-terminus assumed) the “cytotoxicity (MTT)” value [1] was “non-toxic” and the inhibition at 1 µM [2] was 100%.
With KGRKSLLR [Espep2-8mer, KGRKSLLR] the Kd (acetylcholine receptor [3]) was 3100 nM and the “higher affinity compared to Synake” value (acetylcholine receptor [3]) was 740 times.
In the case of KSLLR [5mer-ND], the “binding affinity compared to Synake” value (acetylcholine receptor [4]) is reported as “higher binding affinity than Synake” and the “Binding affinity (RU)” value (acetylcholine receptor [5]) is reported as 23 RU.
With RKRIRR [6mer-1-43, RKRIRR] the “cytotoxicity (MTT)” value [1] was “non-toxic”, the “concentration at which acetylcholine receptors were inhibited” value [2] was 10 µM and the Kd (acetylcholine receptor [5]) was 609 nM. For the same compound, the “Binding affinity (RU)” value (acetylcholine receptor [5]) was 548 RU and the Binding affinity (acetylcholine receptor [5]; 6mer-1 Top sequence (top combinations)) was 548 Ru.
For RKSLL [5mer-CD], the “binding affinity compared to Synake” value (acetylcholine receptor [4]) was “slightly lower binding affinity compared to Synake”.
With RKSLLR [Espep2-6mer, RKSLLR] the “binding affinity compared to Synake” value (acetylcholine receptor [4]) was “higher affinity than that of Synake”, the RU value (acetylcholine receptor [4]; peptide 20 μM) was 177 RU and the Kd (acetylcholine receptor [3]) was 57000 nM. For the same compound, the “higher affinity compared to Synake” value (acetylcholine receptor [3]) was 40 times and the “Binding affinity (RU)” value (acetylcholine receptor [5]) was 35 RU.
In the case of RRGVRR [6mer-1-210], the “concentration at which acetylcholine receptors were inhibited” value [2] is reported as 10 µM, the Binding affinity (acetylcholine receptor [5]; 6mer-1 Top sequence) is reported as 184 Ru and the “Binding affinity (RU)” value (acetylcholine receptor [5]) is reported as 184 RU.
For RRQRR [5mer-73, RRQRR], the “cytotoxicity (MTT)” value [1] was “non-toxic” and the skin permeability (after 8 hours, 37° C.) was 66.87%.
In the case of RSYSR [5mer-311], the “concentration at which acetylcholine receptors were inhibited” value [2] is reported as 10 µM, the “Binding affinity (RU)” value (acetylcholine receptor [5]) is reported as 167 RU and the Binding affinity (acetylcholine receptor [5]; 5mer Top sequence) is reported as 167 Ru.
For RWRYKR [6mer-2-136], the “concentration at which acetylcholine receptors were inhibited” value [2] was 10 µM, the Binding affinity (acetylcholine receptor [5]; 6mer-2 Top sequence) was 194 Ru and the “Binding affinity (RU)” value (acetylcholine receptor [5]) was 194 RU.
In the case of “WTWKGRKSLLR [Espep2-11mer, WTWKGRKSLLR, reference compound]”, the Kd (acetylcholine receptor [3]) is reported as 1200 nM, the “higher affinity compared to Synake” value (acetylcholine receptor [3]) is reported as 1916 times and the “concentration at which acetylcholine receptors were inhibited” value [2] is reported as 5 µM. For the same compound, the “skin permeability” value (sampled up to 24 hours) was “did not permeate at all”.
